59 compounds from the METLIN SMRT retention time set (Domingo-Almenara et al. 2019) can be followed below.

The series in a line: gradient 5% acetonitrile 3 min, to 50% in 2 min, to 85% in 15 min, held 3 min, 100 µL/min. As to conditions: column: Zorbax Extend-C18 2.1 x 50 mm; eluents: water / acetonitrile, 0.1% formic acid. The essentials: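 Over 3 months, pure standards in mixtures of ~100 molecules were run by HPLC coupled to a quadrupole time-of-flight mass spectrometer in positive and negative ionization mode. The column was a Zorbax Extend-C18 (2.1 × 50 mm, 1.8 μm) at 100 μL/min, eluted with water and acetonitrile each holding 0.1% formic acid, with 40 μL dead and 900 μL dwell volumes. Retention time was determined from adduct peaks chosen by software and checked manually.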
The compound `CC(C)OCCCNC(=O)c1ccc2c(=O)n(-c3ccccc3)c(N3CCCC3)nc2c1` came in with an RP-LC retention time of 777 s.

In the case of `Cc1ccc(S(=O)(=O)N2CCN(C(=O)c3ccccc3Cl)CC2)cc1C`, the RP-LC retention time amounted to 669 s.

In turn, `Cc1ccc(-c2cc(C(=O)N3CCN(C)CC3)[nH]n2)cc1C` yielded an RP-LC retention time of 603 s.

As for `Cc1cc(C)cc(NC(=O)Cn2nc3n(c2=O)CCCC3)c1`, the RP-LC retention time turned out to be 674 s.

Compound `COc1cccc(CNC(=O)Cc2cn(C)c3ncccc23)c1OC` displayed an RP-LC retention time of 669 s.

`Cc1ccn(-c2ccc(C(=O)NC3CCCC3)cn2)n1`: the RP-LC retention time was found to be 815 s.

For `O=C(c1ccc[nH]1)N1CCC2(CC1)NC(=O)N(Cc1cccc(Cl)c1)C2=O`, the RP-LC retention time turned out to be 769 s.

With `Cc1nn(C)c(C)c1S(=O)(=O)N1CCC2(CC1)c1[nH]c3ccccc3c1CCN2C`, the RP-LC retention time is 668 s.

For `Cc1cc(N2C=C(C(=O)N3CCOCC3)S(=O)(=O)c3ccccc32)ccc1Br`, the RP-LC retention time is 855 s.

Compound `CNC(=O)Oc1ccc2c(c1)[C@]1(C)CCN(C)C1N2C` (some centres undefined) gave an RP-LC retention time of 594 s.

`COc1cccc(OCC2c3ccsc3CCN2C(=O)CN(C(C)=O)C2CC2)c1` (centres undefined) returned an RP-LC retention time of 807 s.

In turn, `O=C(CN1C(=O)CCCc2ccccc21)NCc1ccc(F)c(Cl)c1` displayed an RP-LC retention time of 859 s.

In the case of `CCN(CC)C(=O)c1ccc2c(c1)N(CC(=O)NCc1ccc3c(c1)OCO3)C(=O)C1CCCCN21` (centres undefined), the RP-LC retention time worked out at 826 s.

For `Cn1c(=O)n([C@@H]2CCN(C(=O)C3CCC3)C2)c2ncccc21`, the RP-LC retention time amounted to 639 s.

As to `COc1ccc(Cl)c2c(=O)c3c([nH]c12)CCN(CC(=O)Nc1ccccc1)C3`, the RP-LC retention time is 617 s.

As to `Cc1nn(CC(=O)NCC2CCCO2)c(=O)c2nc(-c3ccccc3)sc12` (centres undefined), the RP-LC retention time worked out at 709 s.

The compound `CC1C(=O)NCCN1C(=O)c1cc(Cl)ccc1Cl` (centres undefined) registered an RP-LC retention time of 612 s.

In turn, `CC(C(=O)NCCN1CCN(C)CC1)n1c2ccccc2c2cnn(C)c(=O)c21` (centres undefined) came in with an RP-LC retention time of 572 s.

As to `Cc1nc(C)c(C(=O)Nc2ccc(F)cc2C)s1`, the RP-LC retention time worked out at 799 s.

On to `Cc1cccc(N2CCN(C(=O)C3c4ccccc4CCN3C(=O)C3CC3)CC2)c1C` (centres undefined), for which the RP-LC retention time turned out to be 1080 s.

Compound `COc1ccccc1OCCC1CCN(S(=O)(=O)Cc2ccccc2)C1` (centres undefined) registered an RP-LC retention time of 692 s.

Consider `Cc1ccc(OCC(=O)N2CCCCC2c2nncn2CC2CC2)cc1` (centres undefined), for which the RP-LC retention time was 767 s.

Regarding `COCc1nc2cccnc2n1C1CCN(C(=O)Nc2cc(C)cc(C)c2)CC1`, the RP-LC retention time is 747 s.

`O=C(c1cn(-c2cc(N3CCCCC3)ncn2)cn1)N1CCSCC1` yielded an RP-LC retention time of 789 s.

`CC(Oc1ccc(-c2cnc3ccccc3n2)cc1)C(=O)N1CCN(c2ncccn2)CC1` (centres undefined) showed an RP-LC retention time of 872 s.

The compound `CCCN1C(=O)COc2ccc(-c3csc(NC(=O)c4cc(OC)c(OC)c(OC)c4)n3)cc21` yielded an RP-LC retention time of 1040 s.

`CCOc1ccc(-n2nnnc2CNC(=O)NCc2cccs2)cc1`: the RP-LC retention time was determined as 714 s.

`Cc1c(Cl)cccc1NS(=O)(=O)c1cc(-c2nc(C(C)(C)C)cs2)cs1` showed an RP-LC retention time of 1340 s.

`CC(CC(=O)NCCC1=CCCCC1)Cc1nnc2c(=O)n(-c3cccc(F)c3)ccn12` (centres undefined): the RP-LC retention time was found to be 813 s.

`CCNc1cc(N2CCC(CCC(=O)N3CCC(C)CC3)CC2)ncn1` gave an RP-LC retention time of 548 s.

In turn, `COCc1nc(N2CCN(c3ccccc3F)CC2)ncc1C(=O)O` yielded an RP-LC retention time of 827 s.

The compound `O=C(NCCc1csc(C2CCN(C(=O)C3CCCO3)CC2)n1)C1CCC1` (centres undefined) yielded an RP-LC retention time of 626 s.

For `CCn1cc(CN2CCC(C(=O)NCc3ccc(N(C)C)cc3)CC2)c2cc(OC)ccc21`, the RP-LC retention time was 603 s.

As for `Cc1oc(-c2[nH]ncc2C(=O)N(C)C)cc1S(=O)(=O)N1CCOCC1`, the RP-LC retention time was 604 s.

In the case of `CCOC(=O)C(C)Sc1nnc(CNC(=O)c2ccc(OC)cc2)n1C1CCCCC1` (centres undefined), the RP-LC retention time worked out at 805 s.

For `O=C(Cn1ccc2ccn(Cc3ccccc3F)c2c1=O)NCc1ccc2c(c1)OCO2`, the RP-LC retention time was determined as 894 s.

`CCn1cc(CCNC(=O)Nc2ccc(Cl)cc2F)c2cccnc21` returned an RP-LC retention time of 824 s.

The compound `CCN(C(=O)c1ccccc1OC)c1nc(-c2ccccc2)cs1` showed an RP-LC retention time of 1210 s.

`CCN1C(=O)C2CC3(CCN(Cc4ccc5cc[nH]c5c4)CC3)CN2C1=O` (centres undefined) gave an RP-LC retention time of 621 s.

The compound `COc1cccc(/C=C/c2nc(C#N)c(NCCN(C)C)o2)c1` registered an RP-LC retention time of 654 s.

Compound `Cc1[nH]c(C(=O)N2CCC(CC(=O)NCCc3c[nH]c4ccccc34)CC2)c(C)c1C` had an RP-LC retention time of 674 s.

For `Cc1noc(-c2ccc(-n3cnc(C(=O)NC(C)c4ccc(F)cc4)c3)nc2)n1` (centres undefined), the RP-LC retention time amounted to 862 s.

In turn, `O=c1ccc(S(=O)(=O)N2CCCC2)cn1Cc1ccccc1` gave an RP-LC retention time of 602 s.

The compound `CSc1cccc(NC(=O)N2CCCC(C)(C(=O)NCc3ccc(C)cc3)C2)c1` (centres undefined) showed an RP-LC retention time of 989 s.

In turn, `c1cc(-c2nc(-c3ccc4nncn4c3)no2)co1` gave an RP-LC retention time of 679 s.

In turn, `Cc1csc(-c2cc(S(=O)(=O)N3CCN(CC(C)C)CC3)cn2CC(=O)N2CCCCC2)n1` came in with an RP-LC retention time of 724 s.

For `CC(C)NC(=O)N1CCC(CCOc2ccccc2F)C1` (centres undefined), the RP-LC retention time worked out at 853 s.

On to `O=C(c1ccc2c(c1)nnn2Cc1ccccc1)N1CCN(c2ncccn2)CC1`, for which the RP-LC retention time stood at 766 s.

For the compound `Cc1nc(N2CCOCC2)c2c(C(=O)NCC3CCN(Cc4ccccc4Cl)CC3)c(C)oc2n1`, the RP-LC retention time was determined as 613 s.

In the case of `COc1cc(NC(=O)Cn2c(=O)n(-c3ccc(F)cc3)c(=O)c3c2cc(C)n3C)cc(OC)c1`, the RP-LC retention time is 798 s.

Compound `Cc1ccc(C)c(NC(=O)CSc2cc(N3CCN(c4ccccc4F)CC3)ncn2)c1` gave an RP-LC retention time of 1160 s.

In turn, `O=C([C@@H]1C[C@H](F)CN1S(=O)(=O)c1cc(F)ccc1F)N1CCc2ccccc2C1` showed an RP-LC retention time of 906 s.

Compound `CCCc1noc(-c2cccnc2N2CCCN(Cc3cc(C)ccc3C)CC2)n1` registered an RP-LC retention time of 790 s.

Consider `O=C(c1ccco1)N1CCCN(C2CCN(Cc3ccc(F)cc3)C2=O)CC1` (centres undefined), for which the RP-LC retention time came out at 565 s.

Consider `O=C(Cn1cccc(-c2nc(-c3ccc(F)cc3)no2)c1=O)Nc1ccc(Br)cc1F`, for which the RP-LC retention time was 964 s.

Take `O=C(NCCCN1CCN(C2CCCCC2)CC1)C1CCCN(C(=O)c2cccc(Cl)c2)C1` (centres undefined): the RP-LC retention time turned out to be 584 s.

`O=C(Cn1c(=O)c2cc(-c3ccco3)nn2c2ncccc21)NC1CCCC1` registered an RP-LC retention time of 698 s.

`COc1ccc2c(c1)C1(CCN(C(=O)c3cccc(Cl)c3)C1)C(=O)N2` (centres undefined) gave an RP-LC retention time of 753 s.

`CCN1CCCn2nc(C3CCN(C(=O)COc4cccc(Cl)c4)CC3)cc2C1=O` displayed an RP-LC retention time of 751 s.
